In the NIST ThermoML archive (doi:10.1021/je8007588):
Numbers after ± are expanded uncertainties.

Details: 298.15 K; 101.33 kPa; Liquid; Vibrating tube method

**Q.** With CCCCCC[N+](C)(C)CCO.F[B-](F)(F)F [hexyl(2-hydroxyethyl)dimethylammonium tetrafluoroborate] as the compound, how does the mass density read?
**A.** The mass density was 1123.6 ± 6.9 kg/m3.
